US8791267B2, “Biaryl PDE4 inhibitors for treating inflammatory, cardiovascular and CNS disorders” (Decode Genetics EHF, priority 2007, dated 2014)
Where a name gives a salt, the structure may show the parent alone.

Assays:
PDE4B = PDE4B (Homo sapiens, UniProt Q07343); test: In-vitro assay for PDE4 enzymes, real-time enzyme-coupled spectrophotometric assay, PDE4B Activity (Table 10); assay type: biochemical; details: human PDE4B (hPDE4B), enzyme-coupled spectrophotometric assay; read-out: PDE4B Activity, hPDE4B
PDE4B, sequence (Q07343 whole entry): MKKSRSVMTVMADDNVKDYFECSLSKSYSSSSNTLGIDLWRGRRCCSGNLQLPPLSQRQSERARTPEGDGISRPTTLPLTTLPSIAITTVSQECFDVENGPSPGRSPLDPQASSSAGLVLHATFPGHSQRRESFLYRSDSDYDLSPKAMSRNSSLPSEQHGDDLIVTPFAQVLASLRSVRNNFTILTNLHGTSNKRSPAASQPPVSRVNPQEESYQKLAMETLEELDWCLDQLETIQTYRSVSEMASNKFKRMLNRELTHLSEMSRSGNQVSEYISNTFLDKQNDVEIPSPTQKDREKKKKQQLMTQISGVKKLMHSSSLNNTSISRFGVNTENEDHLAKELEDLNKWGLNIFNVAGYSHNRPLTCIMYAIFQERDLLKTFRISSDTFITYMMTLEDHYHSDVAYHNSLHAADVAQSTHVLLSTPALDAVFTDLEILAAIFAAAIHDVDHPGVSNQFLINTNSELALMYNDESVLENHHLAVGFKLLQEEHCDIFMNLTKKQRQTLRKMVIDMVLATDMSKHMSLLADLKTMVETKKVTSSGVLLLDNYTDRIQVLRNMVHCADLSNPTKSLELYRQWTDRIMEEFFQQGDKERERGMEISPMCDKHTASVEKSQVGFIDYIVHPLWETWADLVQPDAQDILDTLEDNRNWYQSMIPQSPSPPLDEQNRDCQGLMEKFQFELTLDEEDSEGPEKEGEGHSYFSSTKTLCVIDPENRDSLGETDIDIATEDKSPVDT

PDE4 = PDE4 (Homo sapiens, UniProt Q08499); test: In-vitro assay for PDE4 enzymes, real-time enzyme-coupled spectrophotometric assay (Table 9); assay type: biochemical; details: human PDE4D; activity class, Table 9; read-out: hPDE4D
PDE4, sequence (Q08499 whole entry): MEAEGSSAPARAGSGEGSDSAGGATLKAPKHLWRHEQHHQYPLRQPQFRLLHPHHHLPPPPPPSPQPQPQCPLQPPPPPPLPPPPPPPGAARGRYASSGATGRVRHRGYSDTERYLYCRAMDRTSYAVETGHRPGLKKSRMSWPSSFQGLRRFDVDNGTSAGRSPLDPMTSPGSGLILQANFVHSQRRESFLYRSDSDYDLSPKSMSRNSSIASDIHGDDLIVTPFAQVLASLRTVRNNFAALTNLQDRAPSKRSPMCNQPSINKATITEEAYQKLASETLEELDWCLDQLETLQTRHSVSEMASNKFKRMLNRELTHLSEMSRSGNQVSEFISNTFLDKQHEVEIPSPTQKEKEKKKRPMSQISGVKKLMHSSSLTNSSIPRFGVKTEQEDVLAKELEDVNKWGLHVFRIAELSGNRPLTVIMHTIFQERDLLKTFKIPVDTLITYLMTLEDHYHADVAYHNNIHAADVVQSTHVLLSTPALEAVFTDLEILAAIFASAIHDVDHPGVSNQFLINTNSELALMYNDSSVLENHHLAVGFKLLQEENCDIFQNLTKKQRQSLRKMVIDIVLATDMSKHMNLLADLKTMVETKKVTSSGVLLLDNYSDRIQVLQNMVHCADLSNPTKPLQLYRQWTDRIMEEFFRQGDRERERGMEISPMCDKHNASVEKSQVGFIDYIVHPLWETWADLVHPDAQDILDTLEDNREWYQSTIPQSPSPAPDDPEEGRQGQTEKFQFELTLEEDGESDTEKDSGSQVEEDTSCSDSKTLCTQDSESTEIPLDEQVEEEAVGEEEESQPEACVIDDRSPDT

Structure (SMILES)	IC50 (PDE4B) [µM]	IC50 (PDE4) [µM]
COc1ccc(Cc2ccc(-n3cnnn3)nc2)c(F)c1-c1cccc(Cl)c1 [P-422, 5-(3′-chloro-2-fluoro-6-methoxy-biphenyl-3-ylmethyl)-2-tetrazol-1-yl-pyridine]	< 5	< 5
COc1ccc(Cc2ccc(F)cc2)c(N)c1-c1cccc([N+](=O)[O-])c1 [P-176, 3-(4-fluoro-benzyl)-6-methoxy-3′-nitro-biphenyl-2-ylamine]	< 5	< 5
COc1ccc(CCn2ccccc2=O)cc1-c1cccc([N+](=O)[O-])c1 [P-244, 1-[2-(6-Methoxy-3′-nitro-biphenyl-3-yl)-ethyl]-1H-pyridin-2-one]	< 5	< 5
COc1ccc(Cc2ccc(NC(N)=O)c(O)c2)c(F)c1-c1cccc(Cl)c1 [P-262]	< 5	< 5
COc1ccc(CN2CC[C@@H](O)C2)cc1-c1cccc([N+](=O)[O-])c1 [P-071, (R)-1-(6-Methoxy-3′-nitro-biphenyl-3-ylmethyl)-pyrrolidin-3-01]	21 to 40	< 5
COc1ccc(Cn2ccnc2-c2cccs2)c(F)c1-c1cccc(Cl)c1 [P-559, 1-(3′-Chloro-2-fluoro-6-methoxy-biphenyl-3-ylmethyl)-2-thiophen-2-yl-1H-imidazole hydrochloride salt]	< 5	< 5
COc1ccc(Cc2ccc(C(N)=O)nc2)c(F)c1-c1cccc(C#N)c1 [P-415, 5-(3′-Cyano-2-fluoro-6-methoxy-biphenyl-3-ylmethyl)-pyridine-2-carboxylic acid amide]	< 5	< 5
CCN1CCN(Cc2ccc(Cc3ccc(OC)c(-c4cccc(Cl)c4)c3F)cn2)C1=O [P-461, 1-[5-(3′-Chloro-2-fluoro-6-methoxy-biphenyl-3-ylmethyl)-pyridin-2-ylmethyl]-3-ethyl-imidazolidin-2-one hydrochloride]	< 5	< 5
COc1ccc(Cn2cncn2)cc1-c1ccc2nonc2c1 [P-481, 5-(2-Methoxy-5-[1,2,4]triazol-1-ylmethyl-phenyl)-benzo[1,2,5]oxadiazole]	5 to 20	< 5
COc1ccc(Cn2cc(-c3ccccn3)cn2)c(F)c1-c1cccc(Cl)c1 [P-527, 2-[1-(3′-Chloro-2-fluoro-6-methoxy-biphenyl-3-ylmethyl)-1H-pyrazol-4-yl]-pyridine]	5 to 20	< 5
COc1ccc(Cn2cncn2)cc1-c1cccc(C(C)=O)c1 [P-082, 1-(2′-Methoxy-5′-[1,2,4]triazol-1-ylmethyl-biphenyl-3-yl)-ethanone]	5 to 20	< 5
COc1ccc(Cc2ccc(OCCN3CCOCC3)cc2)cc1-c1cccc([N+](=O)[O-])c1 [P-171]	< 5	< 5
COc1ccc(Cn2cccn2)cc1-c1ccc2c(c1)OCO2 [P-074, 1-(3-Benzo[1,3]dioxol-5-yl-4-methoxy-benzyl)-1H-pyrazole]	5 to 20	< 5
COc1ccc(Cc2ccc(C(C)N)nc2)c(F)c1-c1cccc(Cl)c1 (centres unmarked) [P-606, 1-[5-(3′-Chloro-2-fluoro-6-methoxy-biphenyl-3-ylmethyl)-pyridin-2-yl]-ethylamine]	< 5	< 5
COc1ccc(Cc2ccnc(CN)c2)c(F)c1-c1cccc(Cl)c1 [P-437, C-[4-(3′-Chloro-2-fluoro-6-methoxy-biphenyl-3-ylmethyl)-pyridin-2-yl]-methylamine]	< 5	< 5
CCNC(=O)Nc1ccc(Sc2ccc(OC)c(-c3cccc(Cl)c3)c2)cc1 [P-448, 1-[4-(3′-Chloro-6-methoxy-biphenyl-3-ylsulfanyl)-phenyl]-3-ethyl urea]	< 5	< 5
COc1ccc(Cc2nnc(NC(N)=O)s2)c(F)c1-c1cccc(Cl)c1 [P-352, [5-(3′-Chloro-2-fluoro-6-methoxy-biphenyl-3-ylmethyl)-[1,3,4]thiadiazol-2-yl]-urea]	< 5	< 5
COc1ccc(Cc2ccc(C#N)c(O)c2)c(F)c1-c1cccc(Cl)c1 [P-295]	21 to 40	< 5
CCOC(=O)NCc1ccc(Cc2ccc(OC)c(-c3cccc(Cl)c3)c2F)cn1 [P-367, [5-(3′-Chloro-2-fluoro-6-methoxy-biphenyl-3-ylmethyl)-pyridin-2-ylmethyl]-carbamic acid ethyl ester]	< 5	< 5
COc1ccc(Cc2ccc(NC(=O)CN(C)C)cc2)cc1-c1cccc([N+](=O)[O-])c1 [P-144]	< 5	< 5
COc1ccc(Cc2ccc(NC(=O)CCN)cc2)cc1-c1cccc([N+](=O)[O-])c1 [P-159]	< 5	< 5
COc1ccc(Cc2ccc(N3CCN(C)C3=O)nc2)c(F)c1-c1cccc(Cl)c1 [P-470, 1-[5-(3′-Chloro-2-fluoro-6-methoxy-biphenyl-3-ylmethyl)-pyridin-2-yl]-3-methyl-imidazolidin-2-one]	< 5	< 5
COc1ccc(CN2CCCC2=O)cc1-c1ccccc1 [P-162, 1-(6-Methoxy-biphenyl-3-ylmethyl)-pyrrolidin-2-one]	5 to 20	5 to 20
COc1ccc(Cc2ccc(NC(N)=O)nc2)c(F)c1-c1cccc(Cl)c1 [P-259]	< 5	< 5
NC(=O)Nc1ccc(Cc2ccc(OC(F)F)c(-c3cccc(Br)c3)c2F)cc1 [P-323]	< 5	< 5

Structure (SMILES)	IC50 (PDE4B) [µM]	IC50 (PDE4) [µM]
COc1ccc(Cc2ccc(NS(C)(=O)=O)cc2)c(F)c1-c1cccc(Br)c1 [P-200]	< 5	< 5
COc1ccc(Cc2ccno2)c(O)c1-c1cccc([N+](=O)[O-])c1 [P-130, 3-isoxazol-5-ylmethyl-6-methoxy-3′-nitro-biphenyl-2-ol]	< 5	< 5
O=[N+]([O-])c1cccc(-c2c(O)ccc(Cc3ccc(F)cc3)c2F)c1 [P-451]	< 5	< 5
COc1ccc(Cc2ccc(N(C)C)cc2)c(F)c1-c1cccc(Cl)c1 [P-303, [4-(3′-Chloro-2-fluoro-6-methoxy-biphenyl-3-ylmethyl)-phenyl]-dimethyl-amine]	< 5	< 5
COc1ccc(Cc2ccc3[nH]c(=O)oc3c2)c(F)c1-c1cccc(Cl)c1 [P-263]	< 5	< 5
COc1ccc(COc2ccc([N+](=O)[O-])cc2)c(F)c1-c1cccc(Cl)c1 [P-575]	< 5	5 to 20
CCNC(=O)Nc1ncc(Cc2ccc(OC)c(-c3cccc(C(C)=O)c3)c2F)cn1 [P-315, 1-[5-(3′-Acetyl-2-fluoro-6-methoxy-biphenyl-3-ylmethyl)-pyrimidin-2-yl]-3-ethyl-urea]	< 5	< 5
COc1ccc(Cc2c(C)n[nH]c2C)cc1-c1cccc([N+](=O)[O-])c1 [P-089, 4-(6-Methoxy-3′-nitro-biphenyl-3-ylmethyl)-3,5-dimethyl-1H-pyrazole]	< 5	< 5
COc1ccc(Oc2ccc(N)cc2)c(F)c1-c1cccc(C(C)=O)c1 [P-283, 4-(3′-Acetyl-2-fluoro-6-methoxy-biphenyl-3-yloxy)-phenyl-amine hydrochloride salt]	< 5	< 5
NCc1ccc(Cc2ccc(OC(F)F)c(-c3cccc(Cl)c3)c2)cn1 [P-596, C-[5-(3′-Chloro-6-difluoromethoxy-biphenyl-3-ylmethyl)-pyridin-2-yl]-methylamine]	< 5	< 5
COc1ccc(Cc2cnc(NS(C)(=O)=O)nc2)c(F)c1-c1cccc(Cl)c1 [P-292]	5 to 20	< 5
COc1ccc(Nc2ccc(N)cc2)cc1-c1cccc(Cl)c1 [P-280, N-(3′-Chloro-6-methoxy-biphenyl-3-yl)-benzene-1,4-diamine; hydrochloride]	< 5	< 5
COc1ccc(Cc2ccc(NC(C)=O)cc2)c(F)c1-c1cccc([N+](=O)[O-])c1 [P-107]	< 5	< 5
COc1ccc(Cc2ccc(CO)nc2)c(F)c1-c1cccc(Cl)c1 [P-599, [5-(3′-Chloro-2-fluoro-6-methoxy-biphenyl-3-ylmethyl)-pyridin-2-yl]-methanol]	< 5	< 5
COc1ccc(Cc2ccc(Cl)nc2)c(O)c1-c1cccc([N+](=O)[O-])c1 [P-126]	< 5	< 5
COc1ccc(COc2ccnc(Cl)c2)cc1-c1cccc(Cl)c1 [P-603]	< 5	< 5
COc1ccc(Cc2c(C)noc2C)cc1-c1ccc2c(c1)OCO2 [P-062, 4-(3-Benzo[1,3]dioxol-5-yl-4-methoxy-benzyl)-3,5-dimethyl-isoxazole]	< 5	< 5
COc1ccc(Cc2ccc(NC(=O)CN)cc2)cc1-c1cccc([N+](=O)[O-])c1 [P-145]	< 5	< 5
COc1ccc(CN2C(=O)CCC2=O)cc1-c1cccc([N+](=O)[O-])c1 [P-036, 1-(6-Methoxy-3′-nitro-biphenyl-3-ylmethyl)-pyrrolidine-2,5-dione]	5 to 20	< 5
COc1ccc(C(O)c2ccnn2C)cc1-c1ccc2c(c1)OCO2 (centres unmarked) [P-073, (3-Benzo[1,3]dioxol-5-yl-4-methoxy-phenyl)-(2-methyl-2H-pyrazol-3-yl)-methanol]	21 to 40	< 5
COc1cc(F)c(C(O)c2ccc(F)cc2)cc1-c1cccc([N+](=O)[O-])c1 (centres unmarked) [P-093, (4-Fluoro-6-methoxy-3′-nitro-biphenyl-3-yl)-(4-fluoro-phenyl)-methanol]	5 to 20	< 5
COc1ccc(Cc2ccc(F)c(CO)c2)cc1-c1cccc([N+](=O)[O-])c1 [P-135]	< 5	< 5
COc1ccc(Cc2ccc(OCCN3CCCCC3)cc2)cc1-c1cccc([N+](=O)[O-])c1 [P-166]	< 5	< 5
CCOc1ccc(Cc2ccc(OC)c(-c3cccc(Cl)c3)c2F)s1 [P-310, 2-(3′-Chloro-2-fluoro-6-methoxy-biphenyl-3-ylmethyl)-5-ethoxythiophene]	< 5	< 5
